Assays:
Assay type in all cases: binding, human
CXCR4 D187E = test: 12G5 antibody competition, 293T cells transfected with CXCR4 D187E; conditions: IC50 on CXCR4 D187E relative to wt
Method: (§1) Fig. 4 The interactions of EPI-X4 and the EPI-X4 derivatives WSC02 and JM#21 with point-mutated CXCR4 were assessed by an antibody competition assay. Amino acid substitutions were introduced in the sequence of CXCR4 by site-directed mutagenesis, cloned into an IRES-eGFP expression vector, and transfected into 293 T cells. Afterward, cells were incubated with serially diluted EPI-X4 (a, b), WSC02 (c, d), or JM#21 (e, f) in presence of a constant concentration of CXCR4 specific antibody (clone 12G5). After 2 h, bound antibody was analyzed by flow cytometry. a, c, e) Representative dose-dependent replacement of 12G5 antibody by peptides. b, d, f) IC50 values were calculated by nonlinear regression. Shown are data derived from at least three individual experiments ± SEM. IC50 values were set to 1000 µM (EPI-X4 and WSC02) or 100 µM (JM#21) if the value exceeds the maximally used concentration. *p ≤ 0.05, ***p ≤ 0.001 (one-way ANOVA for comparison with wt). For IC50 values see Table 1. For all binding curves see also Fig. S8.
(§2) Mutated CXCR4 constructs were transfected into 293 T cells that have a very low endogenous expression level of wild-type CXCR4. Transfected cells were then analyzed for CXCR4 surface expression (Fig. S5a) and EPI-X4 binding using a flow cytometry-based antibody competition assay (Fig. S5b, c)[33]. […]

CXCR4 E288D = test: 12G5 antibody competition, 293T cells transfected with CXCR4 E288D; conditions: IC50 on CXCR4 E288D relative to wt
From the text: The human CXCR4 gene (isoform 1 or b, NCBI Reference Sequence: NP_003458.1, UniProtKB/Swiss-Prot: P61073-1) was amplified by PCR of the pTrip_GFP_CXCR4 vector (kindly provided by Prof. Françoise Bachelerie, Paris, France) by generating the flanking single cutter sites NheI and HindIII. The PCR fragment was ligated in the empty pcDNA3.1(+) vector (Life Technologies GmbH, Darmstadt). Afterward, the IRES-eGFP cassette of the proviral clone pBR_NL4-3_IRES-eGFP[44] was PCR-amplified with EcoRI and NotI single cutter sites and ligated in the multiple cloning site after CXCR4. […]
To test for peptide interaction with CXCR4, 50,000 SupT1 cells were seeded in 96-well microtiter plates in PBS supplemented with 1% FCS, the buffer was removed and cells were precooled at 4 °C. […] Afterward, the unbound antibody was removed and cells analyzed by flow cytometry. The mean fluorescence intensity (MFI) was normalized to the PBS control. […] IC50 values were determined by nonlinear regression using GraphPad Prism. […] For analysis, after flow cytometry, eGFP expressing cells were gated and further analyzed. CXCR4 expression levels and antibody binding to CXCR4 was determined using the CXCR4 antibody clones 12G5 (binds to the second ECL loop) (#555976, BD PharmingenTM) and 1D9 (binds to the N-terminus) (#551510, BD PharmingenTM) (Supplement Figure S5). […]

CXCR4 V112L = test: 12G5 antibody competition, 293T cells transfected with CXCR4 V112L; conditions: IC50 on CXCR4 V112L relative to wt
Method: as §1, §2

CXCR4 L41A = test: 12G5 antibody competition, 293T cells transfected with CXCR4 L41A; conditions: IC50 on CXCR4 L41A relative to wt
Method: as §1, §2

IVRWSKKVPCVS [WSC02, first-generation C-terminally truncated 12-mer derivative of EPI-X4 with four substitutions]
Fold change (CXCR4 D187E): 0.4
Fold change (CXCR4 E288D): 74
Fold change (CXCR4 V112L): 0.4
Fold change (CXCR4 L41A): 1.5

From paper PMC8458281, “Computational modeling and experimental validation of the EPI-X4/CXCR4 complex allows rational design of small peptide antagonists” (Communications Biology, 2021)
